Experimental data as given in patent publication US6770597B2, “Benzohydrazide derivatives as herbicides and desiccant compositions containing them” (Ishihara Sangyo Kaisha, Ltd., priority 2002, dated 2004).

Columns and labels:
Type in all cases: in vivo
[1] = system: upland rice (Oryza sp., var.Cocodrie, RICE); assay: Greenhouse herbicide screen, post-emerge application, crop damage rating; conditions: POST emergent, 14 days after application, scale 0-100
Excerpt: (§1) A standard greenhouse herbicide activity screening system was used to evaluate the herbicidal efficacy and crop safety of these test compounds. Seven broadleaf weed species including redroot pigweed (Amaranthus retrofiexus, AMARE), velvetleaf (Abutilon theophrasti, ABUTH), sicklepod (Cassia obtusifolia, CASOB), ivyleaf morningglory (Ipomoea hederacea, IPOHE), lambsquarters (Chenopodium album, CHEAL), common ragweed (Ambrosia artemisiifolia L., AMBEL), and cocklebur (Xanthium strumarium, XANST) were used as test species. Four grass weed species including green foxtail (Setaria viridis, SETVI), barnyardgrass (Echinochloa crus-galli, ECHCG), johnsongrass (Sorghum halepense, SORHA), and large crabgrass (Digitaria sanguinalis, DIGSA) were also used. In addition, four crop species, field corn (Zea mays L., var. Dekalb 535, CORN), soybean (Glycine max L., var. Pella 86, SOY), upland rice (Oryza sp., var.Cocodrie, RICE) and wheat (Triticum aestivum L.) were included.
(§2) All plants were grown in 10 cm square plastic pots which were filled with a sandy loam soil mix. For pre-emerge tests, seeds were planted one day prior to application of the test compounds. For post-emerge tests, seeds were planted 8-21 days prior to the test to allow emergence and good foliage development prior to application of the test substances. At the time of the post-emerge application, plants of all species were usually at the 2-3 leaf stage of development.
(§3) All test compounds were dissolved in acetone and applied to the test units in a volume of 187 l/ha. Test materials were applied at rates ranging from 15 g ai/ha to 1000 g ai/ha using a track sprayer equipped with a TJ8001E even flow flat fan spray nozzle. Plants were arranged on a shelf so that the top of the canopy (post-emerge) or top of the soil surface (pre-emerge) was 40-45 cm below the nozzle. Pressurized air was used to force the test solution through the nozzle as it was mechanically advanced (via electrically driven chain drive) over the top of all test plants/pots. This application simulates a typical commercial field herbicide application.
(§4) Pre-emergence tests were top watered immediately after treatment to incorporate the test materials, then routinely top-watered for normal growth. Post-emerge test units were always bottom-watered.
(§5) At 14 days after application of the test materials, phytotoxicity ratings were recorded. A rating scale of 0-100 was used as previously described in Research Methods in Weed Science, 2nd edition, B. Truelove, Ed., Southern Weed Science Society, Auburn University, Auburn, Ala., 1977. Briefly, “0” corresponds to no damage and “100” corresponds to complete death of all plants in the test unit. This scale was used both to determine efficacy against weed species and damage to crop species. Herbicide activity data for various compounds of this invention, which are shown by compound No. in Tables 1-12, are shown in Tables 13 and 14.

[2] = system: field corn (Zea mays L., var. Dekalb 535, CORN); assay: as above; conditions: POST emergent, 14 days after application, scale 0-100
Excerpt: as §1, §2, §3, §4, §5

[3] = system: lambsquarters (Chenopodium album, CHEAL); assay: Greenhouse herbicide screen, post-emerge application, phytotoxicity rating; conditions: POST emergent, 14 days after application, scale 0-100
Excerpt: as §1, §2, §3, §4, §5

[4] = system: sicklepod (Cassia obtusifolia, CASOB); assay: as above; conditions: POST emergent, 14 days after application, scale 0-100
Excerpt: as §1, §2, §3, §4, §5

[5] = system: johnsongrass (Sorghum halepense, SORHA); assay: as above; conditions: POST emergent, 14 days after application, scale 0-100
Excerpt: as §1, §2, §3, §4, §5

[6] = system: large crabgrass (Digitaria sanguinalis, DIGSA); assay: as above; conditions: POST emergent, 14 days after application, scale 0-100
Excerpt: as §1, §2, §3, §4, §5

[7] = system: velvetleaf (Abutilon theophrasti, ABUTH); assay: as above; conditions: POST emergent, 14 days after application, scale 0-100
Excerpt: as §1, §2, §3, §4, §5

[8] = system: cocklebur (Xanthium strumarium, XANST); assay: as above; conditions: POST emergent, 14 days after application, scale 0-100
Excerpt: as §1, §2, §3, §4, §5

[9] = system: ivyleaf morningglory (Ipomoea hederacea, IPOHE); assay: as above; conditions: POST emergent, 14 days after application, scale 0-100
Excerpt: as §1, §2, §3, §4, §5

[10] = system: common ragweed (Ambrosia artemisiifolia L., AMBEL); assay: as above; conditions: POST emergent, 14 days after application, scale 0-100
Excerpt: as §1, §2, §3, §4, §5

[11] = system: green foxtail (Setaria viridis, SETVI); assay: as above; conditions: POST emergent, 14 days after application, scale 0-100
Excerpt: as §1, §2, §3, §4, §5

[12] = system: barnyardgrass (Echinochloa crus-galli, ECHCG); assay: as above; conditions: POST emergent, 14 days after application, scale 0-100
Excerpt: as §1, §2, §3, §4, §5

[13] = system: redroot pigweed (Amaranthus retrofiexus, AMARE); assay: as above; conditions: POST emergent, 14 days after application
Excerpt: as §1, §2, §3, §4, §5

[14] = system: upland rice (Oryza sp., var.Cocodrie, RICE); assay: Greenhouse herbicide screen, pre-emerge application, crop damage rating; conditions: PRE emergent, 14 days after application, rating scale 0-100
Excerpt: as §1, §2, §3, §4, §5

[15] = system: field corn (Zea mays L., var. Dekalb 535, CORN); assay: as above; conditions: PRE emergent, 14 days after application, rating scale 0-100
Excerpt: as §1, §2, §3, §4, §5

[16] = system: lambsquarters (Chenopodium album, CHEAL); assay: Greenhouse herbicide screen, pre-emerge application, phytotoxicity rating; conditions: PRE emergent, 14 days after application, rating scale 0-100
Excerpt: as §1, §2, §3, §4, §5

[17] = system: sicklepod (Cassia obtusifolia, CASOB); assay: as above; conditions: PRE emergent, 14 days after application, rating scale 0-100
Excerpt: as §1, §2, §3, §4, §5

[18] = system: johnsongrass (Sorghum halepense, SORHA); assay: as above; conditions: PRE emergent, 14 days after application, rating scale 0-100
Excerpt: as §1, §2, §3, §4, §5

[19] = system: large crabgrass (Digitaria sanguinalis, DIGSA); assay: as above; conditions: PRE emergent, 14 days after application, rating scale 0-100
Excerpt: as §1, §2, §3, §4, §5

[20] = system: velvetleaf (Abutilon theophrasti, ABUTH); assay: as above; conditions: PRE emergent, 14 days after application, rating scale 0-100
Excerpt: as §1, §2, §3, §4, §5

[21] = system: cocklebur (Xanthium strumarium, XANST); assay: as above; conditions: PRE emergent, 14 days after application, rating scale 0-100
Excerpt: as §1, §2, §3, §4, §5

[22] = system: ivyleaf morningglory (Ipomoea hederacea, IPOHE); assay: as above; conditions: PRE emergent, 14 days after application, rating scale 0-100
Excerpt: as §1, §2, §3, §4, §5

[23] = system: common ragweed (Ambrosia artemisiifolia L., AMBEL); assay: as above; conditions: PRE emergent, 14 days after application, rating scale 0-100
Excerpt: as §1, §2, §3, §4, §5

[24] = system: green foxtail (Setaria viridis, SETVI); assay: as above; conditions: PRE emergent, 14 days after application, rating scale 0-100
Excerpt: as §1, §2, §3, §4, §5

[25] = system: barnyardgrass (Echinochloa crus-galli, ECHCG); assay: as above; conditions: PRE emergent, 14 days after application, rating scale 0-100
Excerpt: as §1, §2, §3, §4, §5

[26] = system: redroot pigweed (Amaranthus retrofiexus, AMARE); assay: as above; conditions: PRE emergent, 14 days after application, rating scale 0-100
Excerpt: as §1, §2, §3, §4, §5

CN(C)NC(=O)c1cc(-n2c(=O)cc(C(F)(F)F)n(C)c2=O)ccc1Cl [Compound 1-4]
crop damage rating RICE ([1]; 63 g ai/ha): 10
crop damage rating RICE ([1]; 250 g ai/ha): 65
crop damage rating CORN ([2]; 63 g ai/ha): 65
crop damage rating CORN ([2]; 250 g ai/ha): 99
phytotoxicity rating CHEAL ([3]; 63 g ai/ha): 99
phytotoxicity rating CHEAL ([3]; 250 g ai/ha): 100
phytotoxicity rating CASOB ([4]; 63 g ai/ha): 70
phytotoxicity rating CASOB ([4]; 250 g ai/ha): 80
phytotoxicity rating SORHA ([5]; 63 g ai/ha): 50
phytotoxicity rating SORHA ([5]; 250 g ai/ha): 80
phytotoxicity rating DIGSA ([6]; 63 g ai/ha): 35
phytotoxicity rating DIGSA ([6]; 250 g ai/ha): 55
phytotoxicity rating ABUTH ([7]; 63 g ai/ha): 100
phytotoxicity rating ABUTH ([7]; 250 g ai/ha): 100
phytotoxicity rating XANST ([8]; 63 g ai/ha): 100
phytotoxicity rating XANST ([8]; 250 g ai/ha): 100
phytotoxicity rating IPOHE ([9]; 63 g ai/ha): 100
phytotoxicity rating IPOHE ([9]; 250 g ai/ha): 100
phytotoxicity rating AMBEL ([10]; 63 g ai/ha): 80
phytotoxicity rating AMBEL ([10]; 250 g ai/ha): 100
phytotoxicity rating SETVI ([11]; 63 g ai/ha): 65
phytotoxicity rating SETVI ([11]; 250 g ai/ha): 75
phytotoxicity rating ECHCO ([12]; 63 g ai/ha): 65
phytotoxicity rating ECHCO ([12]; 250 g ai/ha): 95
phytotoxicity rating AMARE ([13]; 63 g ai/ha, scale 0-100 (0 no damage, 100 complete death)): 100
phytotoxicity rating AMARE ([13]; 250 g ai/ha, scale 0-100): 100
crop damage rating RICE ([14]; 63 g ai/ha): 0
crop damage rating RICE ([14]; 250 g ai/ha): 8
crop damage rating CORN ([15]; 63 g ai/ha): 35
crop damage rating CORN ([15]; 250 g ai/ha): 75
phytotoxicity rating CHEAL ([16]; 63 g ai/ha): 15
phytotoxicity rating CHEAL ([16]; 250 g ai/ha): 100
phytotoxicity rating CASOB ([17]; 63 g ai/ha): 0
phytotoxicity rating CASOB ([17]; 250 g ai/ha): 90
phytotoxicity rating SORHA ([18]; 63 g ai/ha): 0
phytotoxicity rating SORHA ([18]; 250 g ai/ha): 35
phytotoxicity rating DIGSA ([19]; 63 g ai/ha): 0
phytotoxicity rating DIGSA ([19]; 250 g ai/ha): 60
phytotoxicity rating ABUTH ([20]; 63 g ai/ha): 30
phytotoxicity rating ABUTH ([20]; 250 g ai/ha): 99
phytotoxicity rating XANST ([21]; 63 g ai/ha): 0
phytotoxicity rating XANST ([21]; 250 g ai/ha): 60
phytotoxicity rating IPOHE ([22]; 63 g ai/ha): 75
phytotoxicity rating IPOHE ([22]; 250 g ai/ha): 100
phytotoxicity rating AMBEL ([23]; 63 g ai/ha): 0
phytotoxicity rating AMBEL ([23]; 250 g ai/ha): 40
phytotoxicity rating SETVI ([24]; 63 g ai/ha): 0
phytotoxicity rating SETVI ([24]; 250 g ai/ha): 35
phytotoxicity rating ECHCG ([25]; 63 g ai/ha): 0
phytotoxicity rating ECHCG ([25]; 250 g ai/ha): 40
phytotoxicity rating AMARE ([26]; 63 g ai/ha): 40
phytotoxicity rating AMARE ([26]; 250 g ai/ha): 95
